Results taken from PubChem BioAssay (NCI).
Where “and” joins values, the source holds several entries; their conditions need not be identical. Identical values can stand only once.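 Where inhibition never reached the appropriate level, the endpoint shown equals the highest concentration tested. Otherwise, values were interpolated linearly from a five-concentration, 48-hour dose response in 96-well plates. The concentration for 50% growth inhibition is given as GI50. TGI denotes the concentration required for complete inhibition of growth.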

What was measured:
Test in all cases: growth of human tumour cells (NCI), 48 h
U251 CNS = tested on: U251 CNS
MALME-3M melanoma = tested on: MALME-3M melanoma
HCC-2998 colon = tested on: HCC-2998 colon
NCI-H226 lung = tested on: NCI-H226 lung
K-562 leukemia = tested on: K-562 leukemia
HOP-92 NSCLC = tested on: HOP-92 NSCLC
DU-145 prostate = tested on: DU-145 prostate
HS 578T breast = tested on: HS 578T breast
NCI-H522 lung = tested on: NCI-H522 lung
HOP-62 NSCLC = tested on: HOP-62 NSCLC

| SMILES | TGI (U251 CNS) | GI50 (MALME-3M melanoma) | TGI (MALME-3M melanoma) | GI50 (HCC-2998 colon) | TGI (HCC-2998 colon) | GI50 (NCI-H226 lung) | TGI (NCI-H226 lung) | GI50 (K-562 leukemia) | TGI (K-562 leukemia) [µM] | GI50 (HOP-92 NSCLC) | TGI (HOP-92 NSCLC) | GI50 (DU-145 prostate) | TGI (DU-145 prostate) | GI50 (HS 578T breast) | TGI (HS 578T breast) | GI50 (NCI-H522 lung) | TGI (NCI-H522 lung) | GI50 (HOP-62 NSCLC) | TGI (HOP-62 NSCLC) | GI50 (U251 CNS) |
| --- | --- | --- | --- | --- | --- | --- | --- | --- | --- | --- | --- | --- | --- | --- | --- | --- | --- | --- | --- | --- |
| COC(C)(C)[C@@H](O)[C@H](O)C[C@H](C)C1=C2CC[C@@H]3[C@@]4(C)CC[C@@H](OC(C)=O)C(C)(C)[C@@H]4C[C@@H](OC4OC(COC(C)=O)C(O)C(O)C4O)[C@@]3(C)[C@]2(C)CC1 (stereo not given in full) | 22.5 µM | 15.2 µM | 29.4 µM | 4 µM | 13.4 µM | 13.3 µM | 26.7 µM | 6.06 µM | 22.3 | 13 µM | 25.8 µM | 15 µM | 28.5 µM | 11.8 µM | 28.3 µM | 12.2 µM | 25.2 µM | 14.3 µM | 27.4 µM |  |
| O=C(NCCN1CCOCC1)OCc1nc2nc(Cl)nc(N3CCOCC3)c2[nH]1 | > 100 µM | 4.41 µM | > 100 µM | 3.77 µM | > 100 µM | 3.14 µM | > 100 µM | 2.43 µM | > 100 | 1.41 µM | > 100 µM | 2.37 µM | 7.79 µM | 2.85 µM | > 100 µM | 1.11 µM | > 100 µM | 4.93 µM | > 100 µM | 4.09 µM |
| COc1ccccc1/C=C1\COc2ccc(-c3ccccc3)cc2C1=O | 6.24 µM | 3.81 µM | 40.4 µM | 2.63 µM | 6.92 µM | 4.02 µM | 17.7 µM | 4.54 µM | > 100 | 4.18 µM | > 100 µM | 2.53 µM | 6.63 µM | 2.75 µM | 7.29 µM | 3.1 µM | > 100 µM | 7.6 µM | > 100 µM | 2.12 µM |
| NC(=N\N=C/c1ccc(O)cc1)/C(N)=N\N=C/c1ccc(O)cc1 | > 100 µM | > 100 µM | > 100 µM | 8.56 µM | > 100 µM | > 100 µM | > 100 µM | 0.782 µM | > 100 | 60.3 µM | > 100 µM | 20.2 µM | > 100 µM | > 68.9 µM | > 100 µM | 0.52 µM | > 100 µM | 20.7 µM | 67.1 µM | 19.5 µM |
| COc1ccc([C@H](CC(=O)O)N2CCN(CCCc3ccc4c(n3)NCCC4)C2=O)cn1 | > 100 µM | > 100 µM | > 100 µM | > 100 µM | > 100 µM | 0.417 µM |  | > 80.8 µM | > 100 | 0.0348 µM | 0.159 µM | 0.951 µM | 12.5 µM | 7.15 µM | > 100 µM | 0.114 µM | 0.267 µM | 0.414 µM | > 100 µM | 0.934 µM |
| Nc1ccn(C2CC(F)C(CO)O2)c(=O)n1 (stereo not given) | > 100 µM | > 100 µM | > 100 µM | > 100 µM | > 100 µM | > 100 µM | > 100 µM | > 100 µM | > 100 | > 100 µM | > 100 µM | > 100 µM | > 100 µM | > 100 µM | > 100 µM | > 100 µM | > 100 µM | > 100 µM | > 100 µM | > 100 µM |
| COC(=O)c1cc(-c2ccccc2)[nH]c1N/N=C/c1c(Cl)cccc1Cl | 3.58 µM | 0.34 µM | 6.67 µM | 0.363 µM | 23.4 µM | 0.369 µM |  | 0.729 µM | > 100 | 0.609 µM | 17.5 µM | 0.322 µM | 1.14 µM | 0.221 µM | 3.5 µM | 0.26 µM |  | 0.471 µM | > 33.6 µM | 0.332 µM |
| COc1ccc(/C=C(/c2ccccc2)[N+](=O)[O-])c(OC)c1 | 3.15 µM | 1.58 µM | 3.3 µM | 1.92 µM | 3.4 µM | 1.95 µM | 4.49 µM | 0.494 µM | 38.2 | 1.26 µM | 2.76 µM | 1.44 µM | 2.92 µM | 2.2 µM | 6.65 µM | 1.56 µM | 4.02 µM | 2.42 µM | 4.77 µM | 1.48 µM |
| COc1ccc(C(=O)Cn2c(C(=O)c3ccccc3)nc3ccccc32)cc1 | > 100 µM |  | > 100 µM | 3.2 µM | > 100 µM | > 90.5 µM | > 100 µM | 0.54 µM | > 100 | > 100 µM | > 100 µM | 4.61 µM | > 100 µM | 2.81 µM | > 100 µM | 2.16 µM | > 26.7 µM | 6.57 µM | > 100 µM | 3.62 µM |
| O=C1NC(N/N=C\C(O)C(O)C(O)C(O)CO)=N/C1=C/c1ccccc1 (stereo not given) | > 100 µM and 42.8 µM | > 100 µM and 19.3 µM | > 100 µM and 37.6 µM | > 100 µM and 13.5 µM | > 100 µM and 41.7 µM | > 100 µM and 19.5 µM | > 100 µM and 40.8 µM | 67.6 µM and 33.8 µM and 28.8 µM | > 100 | 60.1 µM and 15.5 µM and > 100 µM | > 100 µM and 33.9 µM | > 100 µM and 17.6 µM | > 100 µM and 48.9 µM | > 100 µM and 24.6 µM | > 100 µM and 73.4 µM | 96.5 µM and 18.6 µM and > 100 µM | > 100 µM and 40.5 µM | > 100 µM and 19.4 µM | > 100 µM and 36.2 µM | > 100 µM and 17.5 µM |
| O=C(CCN1CCCC1)Nc1ccc2c(NCc3ccccc3)c3ccccc3nc2c1 | 1.73 µM | 0.605 µM | 1.99 µM | 0.466 µM | 2.02 µM | 0.551 µM | 2.91 µM | 0.385 µM | 1.41 | 0.348 µM | 2.19 µM | 0.394 µM | 1.51 µM | 0.612 µM | 2.75 µM | 0.298 µM | 1.34 µM | 0.471 µM | 2.51 µM | 0.395 µM |
| COc1ccc(-c2c(C)c(C(=O)O)nc(-c3ccc4c(O)c(OC)c5c(c4n3)=NC(C)(C)N=5)c2N)c(O)c1OC | 25.8 µM |  | 17.7 µM |  | 35.7 µM |  | 63.1 µM |  | 47.9 |  | > 100 µM |  | > 100 µM |  | > 100 µM |  | 24.5 µM |  | 44 µM |  |
| Fc1ccc(-c2ncn(C3CCNCC3)c2-c2ccnc(Oc3ccc4c(c3)OCO4)n2)cc1 | > 25 µM | 21.4 µM | > 25 µM | 11.9 µM | > 25 µM | > 17 µM | > 25 µM | > 23.1 µM | > 25 | 5.21 µM | > 25 µM | > 25 µM | > 25 µM | > 12.7 µM | > 25 µM | > 25 µM | > 25 µM | > 25 µM | > 25 µM | 15.3 µM |
